pIC50: −log10 of the molar value.
Target: T1, human FSH receptor (Homo sapiens, UniProt P23945)
T1 construct: expressed in transfected cells; host or cells: CHO cells (hFSHR clone 16)
T1 sequence (P23945 18-695): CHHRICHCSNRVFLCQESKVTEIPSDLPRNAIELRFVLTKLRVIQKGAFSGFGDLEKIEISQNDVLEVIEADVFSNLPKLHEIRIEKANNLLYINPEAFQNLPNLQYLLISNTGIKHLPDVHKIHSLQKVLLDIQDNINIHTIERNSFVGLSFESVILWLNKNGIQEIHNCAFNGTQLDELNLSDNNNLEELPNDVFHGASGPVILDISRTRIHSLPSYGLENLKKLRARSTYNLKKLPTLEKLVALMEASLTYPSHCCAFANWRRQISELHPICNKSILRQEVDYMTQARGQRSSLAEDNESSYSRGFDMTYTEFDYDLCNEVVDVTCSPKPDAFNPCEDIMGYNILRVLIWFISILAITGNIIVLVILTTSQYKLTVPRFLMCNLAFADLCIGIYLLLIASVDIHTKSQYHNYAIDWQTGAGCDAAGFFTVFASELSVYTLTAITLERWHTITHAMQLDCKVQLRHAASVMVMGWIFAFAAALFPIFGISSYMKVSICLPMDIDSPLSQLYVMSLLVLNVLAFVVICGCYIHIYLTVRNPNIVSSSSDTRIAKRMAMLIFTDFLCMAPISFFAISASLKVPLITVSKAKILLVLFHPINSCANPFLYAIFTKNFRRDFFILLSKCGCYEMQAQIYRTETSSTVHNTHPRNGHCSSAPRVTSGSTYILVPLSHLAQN
Test: HTRF assay for measuring cAMP in cells, FSH-antagonistic effect (in the presence of hFSH)
Type: cell-based
Details: hFSHR clone 16 cells (CHO cells stably transfected with the human FSH receptor), in the presence of 1e-9 mol/l hFSH, 37° C. for 2 h
Description: […]

SMILES	pIC50
COCCCc1ccc2nc(-c3cc(OC)c(OC)c(OC)c3)cc(C(=O)N[C@@H](CO)Cc3c[nH]c4ccccc34)c2c1 [Example 392, 6-(3-Methoxypropyl)-2-(3,4,5-trimethoxyphenyl) quinoline-4-carboxylic acid [(R)-1-hydroxy-methyl-2-(1H-indol-3-yl)ethyl]amide]	5.82
COc1ccc(-c2cc(CCCO)cc(C(=O)N[C@@H](CO)Cc3c[nH]c4ccccc34)c2)cc1OC [Example 396, 5-(3-Hydroxypropyl)-3′,4′-dimethoxybiphenyl-3-carboxylic acid [(R)-1-hydroxymethyl-2-(1H-indol-3-yl)ethyl]amide]	5.46
COc1ccc(-c2cccc(C(=O)N[C@@H](CO)Cc3cn(CCCCC#N)c4ccccc34)c2)cc1F [Example 403, N-[(R)-2-[1-(4-Cyanobutyl)-1H-indol-3-yl]-1-(hydroxymethyl)ethyl]-3′-fluoro-4′-methoxy[1,1′-biphenyl]-3-carboxamide]	7.00
CCOc1ccc(-c2cccc(-c3ccccc3)c2)cc1C(=O)NC(CO)Cc1c[nH]c2ccccc12 (stereo not drawn) [Example 430, 4-Ethoxy-[1,1′; 3′,1″]terphenyl-3-carboxylic acid [1-hydroxymethyl-2-(1H-indol-3-yl)ethyl]amide]	6.40

The remaining lines, values ahead:

pIC50	SMILES
6.52	O=C(N[C@@H](CO)Cc1c[nH]c2ccccc12)c1cc(-c2ccc3c(c2)OCO3)ccc1OC1CCCC1 [Example 418, 5-Benzo[1,3]dioxol-5-yl-2-cyclopentyloxy-N-[(R)-1-hydroxymethyl-2-(1H-indol-3-yl)ethyl]benzamide]
6.00	CCOc1ccc(-c2ccc(S(=O)(=O)CC)cc2)cc1C(=O)N[C@@H](CO)Cc1c[nH]c2ccccc12 [Example 483, 4-Ethanesulphonyl-4-ethoxybiphenyl-3-carboxylic [(R)-2-hydroxy-1-(1H-indol-3-ylmethyl)ethyl]amide]

— patent US20070060573A1, “Acyltryptophanols” (priority 2005, published 2007)
